Measurements taken from patent US20230096766A1, “AMINO ACID HAVING FUNCTIONAL GROUP CAPABLE OF INTERMOLECULAR HYDROGEN BONDING, PEPTIDE COMPOUND CONTAINING SAME AND METHOD FOR PRODUCTION THEREOF” (Chugai Seiyaku Kabushiki Kaisha, priority 2018, published 2023).
*1 amine or outer side, *2 acyl side, *3 side chain or, on linkers, in order; H or OH if unused. Where a SMILES comes first, the peptide text is derived from it. Bridges are numbered along the chain shown (N, C = ends). [ ]: non-standard residue; d: D form. The star is where a group is joined. ξ: configuration not given here. NMePhe(3-Cl) = CN[C@@H](Cc1cccc(Cl)c1)C(=O)O; NMehPhe = CN[C@@H](CCc1ccccc1)C(=O)O; X7 = O=C(C[C@H](COCCO)N[*:1])[*:2]; NMeF = CN[C@@H](Cc1ccccc1)C(=O)O; NMeGABA = CN(CCCC(=O)[*:2])[*:1]; NMeI = CC[C@H](C)[C@H](NC)C(=O)O; CH2CONHtBu = CC(C)(C)NC(=O)C*; NMeL = CN[C@@H](CC(C)C)C(=O)O; Thr(3ξ) = CC(O)[C@H](N)C(=O)O; NMeV = CN[C@H](C(=O)O)C(C)C; NMeA = CN[C@@H](C)C(=O)O; Piperidide = C1CCN(*)CC1; CH2CMe2OH = CC(C)(O)C*; NBuGly = CCCCNCC(=O)O; Isopentyl = CC(C)CC*; NPrGly = CCCNCC(=O)O; Sar = CNCC(=O)O; tBu = CC(C)(C)*

Assay: in vitro
Conditions: human, Caco-2, Caco-2 (cm/sec)

SMILES: CCCN1CC(=O)N(C)[C@@H](CC(C)C)C(=O)N[C@@H](COCCC(C)C)C(=O)N(C)[C@@H](Cc2ccccc2)C(=O)N(C)[C@@H](C(C)C)C(=O)N[C@H](C(=O)N2CCCCC2)CC(=O)N[C@H](C(C)C)C(=O)N(C)[C@@H](Cc2ccccc2)C(=O)N[C@@H](COCC(C)(C)O)C(=O)N(C)[C@@H](CC(C)C)C(=O)N[C@@H]([C@@H](C)O)C1=O [AP01] ([dV][NMeF]S(CH2CMe2OH)[NMeL]T[NPrGly][NMeL]S(Isopentyl)[NMeF][NMeV]D-Piperidide; lactam N-11)
- Papp: 1.4 ×10⁻⁶ cm/s

SMILES: CC(C)C[C@@H]1NC(=O)[C@H](Cc2ccccc2)N(C)C(=O)[C@@H](C(C)C)NC(=O)C[C@@H](C(=O)N2CCCCC2)NC(=O)[C@H](CC(C)C)N(C)C(=O)[C@H](Cc2cccc(Cl)c2)N(C)C(=O)[C@H](COCC(C)(C)O)NC(=O)[C@H](CC(C)C)N(C)C(=O)CN(C)C(=O)[C@H]([C@@H](C)O)NC(=O)[C@H](CC(C)C)N(C)C1=O [AP02] ([dV][NMeF]L[NMeL]T[Sar][NMeL]S(CH2CMe2OH)[NMePhe(3-Cl)][NMeL]D-Piperidide; lactam N-11)
- Papp: 1.3 ×10⁻⁶ cm/s

SMILES: CC(C)CCOC[C@@H]1NC(=O)[C@H](Cc2ccccc2)N(C)C(=O)[C@H](Cc2ccccc2)N(C)C(=O)[C@H](COCC(C)(C)O)NC(=O)[C@H](CC(C)C)N(C)C(=O)CCCN(C)C(=O)C[C@@H](C(=O)N2CCCCC2)NC(=O)[C@H](CC(C)C)N(C)C(=O)[C@H](CC(C)C)N(C)C(=O)[C@H]([C@@H](C)O)NC(=O)[C@H](CC(C)C)N(C)C1=O [AP03] ([NMeGABA][NMeL]S(CH2CMe2OH)[NMeF][NMeF]S(Isopentyl)[NMeL]T[NMeL][NMeL]D-Piperidide; lactam N-11)
- Papp: 0.46 ×10⁻⁶ cm/s

SMILES: CC[C@H](C)[C@@H]1NC(=O)[C@H](CC(C)C)N(C)C(=O)CCCN(C)C(=O)C[C@@H](C(=O)N2CCCCC2)NC(=O)[C@H](CC(C)C)N(C)C(=O)[C@H](CC(C)C)N(C)C(=O)[C@H]([C@@H](C)O)NC(=O)[C@H](CC(C)C)N(C)C(=O)[C@H](COCC(C)(C)O)NC(=O)[C@H](Cc2cccc(Cl)c2)N(C)C(=O)[C@H](Cc2ccccc2)N(C)C1=O [AP04] ([NMeGABA][NMeL]I[NMeF][NMePhe(3-Cl)]S(CH2CMe2OH)[NMeL]T[NMeL][NMeL]D-Piperidide; lactam N-11)
- Papp: 0.53 ×10⁻⁶ cm/s

SMILES: CCCN1CC(=O)N(C)[C@@H](CC(C)C)C(=O)N[C@H](C(=O)N2CCCCC2)CC(=O)N(C)[C@@H](C)C(=O)N[C@@H](COCC(C)(C)O)C(=O)N(C)[C@@H](CC(C)C)C(=O)N(C)[C@@H](Cc2ccccc2)C(=O)N[C@@H](CC(C)C)C(=O)N(C)[C@@H](Cc2ccccc2)C(=O)N(C)[C@@H]([C@@H](C)CC)C(=O)N[C@@H]([C@@H](C)O)C1=O [AP05] ([NMeA]S(CH2CMe2OH)[NMeL][NMeF]L[NMeF][NMeI]T[NPrGly][NMeL]D-Piperidide; lactam N-11)
- Papp: 2.8 ×10⁻⁶ cm/s

SMILES: CCCN1CC(=O)N(C)[C@@H](CC(C)C)C(=O)N[C@H](C(=O)N2CCCCC2)CC(=O)N(C)[C@@H](C)C(=O)N[C@@H](CC(C)C)C(=O)N(C)[C@@H](CC(C)C)C(=O)N(C)[C@@H](Cc2ccccc2)C(=O)N[C@@H](COCC(C)(C)O)C(=O)N(C)[C@@H](Cc2ccccc2)C(=O)N(C)[C@@H]([C@@H](C)CC)C(=O)N[C@@H]([C@@H](C)O)C1=O [AP06] ([NMeA]L[NMeL][NMeF]S(CH2CMe2OH)[NMeF][NMeI]T[NPrGly][NMeL]D-Piperidide; lactam N-11)
- Papp: 0.033 ×10⁻⁶ cm/s

SMILES: CCCN1CC(=O)N(C)[C@@H](Cc2cccc(Cl)c2)C(=O)N(C)[C@@H](CC(C)C)C(=O)N[C@@H](COC(C)(C)C)C(=O)N(C)[C@@H](CC(C)C)C(=O)N[C@H](C(=O)N2CCCCC2)CC(=O)N(C)CC(=O)N(C)[C@@H](Cc2ccccc2)C(=O)N[C@@H](COCC(C)(C)O)C(=O)N(C)[C@@H](CC(C)C)C(=O)N[C@@H]([C@@H](C)O)C1=O [AP07] ([Sar][NMeF]S(CH2CMe2OH)[NMeL]T[NPrGly][NMePhe(3-Cl)][NMeL]S(tBu)[NMeL]D-Piperidide; lactam N-11)
- Papp: 1.3 ×10⁻⁶ cm/s

SMILES: CCCN1CC(=O)N(C)[C@@H](Cc2ccccc2)C(=O)N(C)[C@@H](CC(C)C)C(=O)N[C@@H](COCC(C)(C)O)C(=O)N(C)[C@@H](CC(C)C)C(=O)N[C@H](C(=O)N2CCCCC2)CC(=O)N(C)CC(=O)N(C)[C@@H](Cc2ccccc2)C(=O)N[C@@H]([C@@H](C)CC)C(=O)N(C)[C@@H](CC(C)C)C(=O)N[C@@H]([C@@H](C)O)C1=O [AP08] ([Sar][NMeF]I[NMeL]T[NPrGly][NMeF][NMeL]S(CH2CMe2OH)[NMeL]D-Piperidide; lactam N-11)
- Papp: 0.67 ×10⁻⁶ cm/s

SMILES: CCCN1CC(=O)N(C)[C@@H](Cc2ccccc2)C(=O)N[C@@H]([C@@H](C)CC)C(=O)N(C)[C@@H](CC(C)C)C(=O)N[C@@H]([C@@H](C)O)C(=O)N(CCC)CC(=O)N(C)[C@@H](Cc2ccccc2)C(=O)N(C)[C@@H](CC(C)C)C(=O)N[C@@H](COCC(C)(C)O)C(=O)N(C)[C@@H](C(C)C)C(=O)N[C@H](C(=O)N2CCCCC2)CC1=O [AP09] ([NPrGly][NMeF]I[NMeL]T[NPrGly][NMeF][NMeL]S(CH2CMe2OH)[NMeV]D-Piperidide; lactam N-11)
- Papp: 1.1 ×10⁻⁶ cm/s

SMILES: CCCN1CC(=O)N(C)[C@@H](CC(C)C)C(=O)N[C@@H](COCC(C)(C)O)C(=O)N(C)[C@@H](Cc2ccccc2)C(=O)N(C)[C@@H](CC(C)C)C(=O)N[C@H](C(=O)N2CCCCC2)CC(=O)N[C@H](C(C)C)C(=O)N(C)[C@@H](Cc2ccccc2)C(=O)N[C@@H](CC(C)C)C(=O)N(C)[C@@H](CC(C)C)C(=O)N[C@@H]([C@@H](C)O)C1=O [AP10] ([dV][NMeF]L[NMeL]T[NPrGly][NMeL]S(CH2CMe2OH)[NMeF][NMeL]D-Piperidide; lactam N-11)
- Papp: 1.5 ×10⁻⁶ cm/s

SMILES: CCCCN1CC(=O)N(C)[C@@H](CC(C)C)C(=O)N[C@@H](COCC(=O)NC(C)(C)C)C(=O)N(C)[C@@H](CCc2ccccc2)C(=O)N(C)[C@@H](C)C(=O)N[C@H](C(=O)N2CCCCC2)CC(=O)N[C@H](CC(C)C)C(=O)N(C)[C@@H](CC(C)C)C(=O)N[C@@H](Cc2ccccc2)C(=O)N(C)[C@@H](CC(C)C)C(=O)N[C@@H](C(C)O)C1=O (stereo partly drawn) [AP12] ([dL][NMeL]F[NMeL][Thr(3ξ)][NBuGly][NMeL]S(CH2CONHtBu)[NMehPhe][NMeA]D-Piperidide; lactam N-11)
- Papp: 0.17 ×10⁻⁶ cm/s

SMILES: CCCN1CC(=O)N(C)[C@@H](CC(C)C)C(=O)N[C@@H](COCC(=O)NC(C)(C)C)C(=O)N(C)[C@@H](CC(C)C)C(=O)N(C)[C@@H](C)C(=O)N[C@H](C(=O)N2CCCCC2)CC(=O)N[C@H](CC(C)C)C(=O)N(C)[C@@H](CC(C)C)C(=O)N[C@@H](Cc2ccccc2)C(=O)N(C)[C@@H](CCc2ccccc2)C(=O)N[C@@H]([C@@H](C)O)C1=O [AP13] ([dL][NMeL]F[NMehPhe]T[NPrGly][NMeL]S(CH2CONHtBu)[NMeL][NMeA]D-Piperidide; lactam N-11)
- Papp: 0.32 ×10⁻⁶ cm/s

SMILES: CC(C)C[C@@H]1NC(=O)[C@H](Cc2ccccc2)N(C)C(=O)[C@H](CC(C)C)N(C)C(=O)[C@H](COCC(=O)NC(C)(C)C)NC(=O)[C@H](CC(C)C)N(C)C(=O)C[C@@H](C(=O)N2CCCCC2)NC(=O)[C@H](C)N(C)C(=O)CN(C)C(=O)[C@H]([C@@H](C)O)NC(=O)[C@H](CC(C)C)N(C)C(=O)[C@H](CCc2ccccc2)N(C)C1=O [AP14] ([NMeL]S(CH2CONHtBu)[NMeL][NMeF]L[NMehPhe][NMeL]T[Sar][NMeA]D-Piperidide; lactam N-11)
- Papp: 0.39 ×10⁻⁶ cm/s

SMILES: CCCN1CC(=O)N(C)[C@@H](C)C(=O)N[C@H](C(=O)N2CCCCC2)CC(=O)N(C)[C@@H](CC(C)C)C(=O)N[C@@H](Cc2ccccc2)C(=O)N(C)[C@@H](CC(C)C)C(=O)N(C)[C@@H](CC(C)C)C(=O)N[C@@H](COCC(=O)NC(C)(C)C)C(=O)N(C)[C@@H](CCc2ccccc2)C(=O)N(C)[C@@H](CC(C)C)C(=O)N[C@@H]([C@@H](C)O)C1=O [AP15] ([NMeL]F[NMeL][NMeL]S(CH2CONHtBu)[NMehPhe][NMeL]T[NPrGly][NMeA]D-Piperidide; lactam N-11)
- Papp: 0.86 ×10⁻⁶ cm/s

SMILES: CC(C)C[C@@H]1NC(=O)[C@H](CC(C)C)N(C)C(=O)[C@H](CCc2ccccc2)N(C)C(=O)[C@H](COCC(=O)NC(C)(C)C)NC(=O)[C@H](CC(C)C)N(C)C(=O)C[C@@H](C(=O)N2CCCCC2)NC(=O)[C@H](C)N(C)C(=O)CN(C)C(=O)[C@H]([C@@H](C)O)NC(=O)[C@H](CCc2ccccc2)N(C)C(=O)[C@H](CC(C)C)N(C)C1=O [AP16] ([NMeL]S(CH2CONHtBu)[NMehPhe][NMeL]L[NMeL][NMehPhe]T[Sar][NMeA]D-Piperidide; lactam N-11)
- Papp: 0.27 ×10⁻⁶ cm/s

SMILES: CCCCN1CC(=O)N(C)[C@@H](Cc2ccccc2)C(=O)N[C@@H](COCC(=O)NC(C)(C)C)C(=O)N(C)[C@@H](CC(C)C)C(=O)N[C@@H]([C@@H](C)O)C(=O)N(CCC)CC(=O)N(C)[C@@H](Cc2ccccc2)C(=O)N(C)[C@@H](CC(C)C)C(=O)N[C@@H](CC(C)C)C(=O)N(C)[C@@H](C)C(=O)N[C@H](C(=O)N2CCCCC2)CC1=O [AP17] ([NBuGly][NMeF]S(CH2CONHtBu)[NMeL]T[NPrGly][NMeF][NMeL]L[NMeA]D-Piperidide; lactam N-11)
- Papp: 0.72 ×10⁻⁶ cm/s

SMILES: CCCCN1CC(=O)N(C)[C@@H](Cc2ccccc2)C(=O)N[C@@H]([C@@H](C)CC)C(=O)N(C)[C@@H](CC(C)C)C(=O)N[C@@H]([C@@H](C)O)C(=O)N(CCC)CC(=O)N(C)[C@@H](Cc2ccccc2)C(=O)N(C)[C@@H](CC(C)C)C(=O)N[C@@H](COCC(=O)NC(C)(C)C)C(=O)N(C)[C@@H](C)C(=O)N[C@H](C(=O)N2CCCCC2)CC1=O [AP18] ([NBuGly][NMeF]I[NMeL]T[NPrGly][NMeF][NMeL]S(CH2CONHtBu)[NMeA]D-Piperidide; lactam N-11)
- Papp: 1 ×10⁻⁶ cm/s

SMILES: CCCCN1CC(=O)N(C)[C@@H](CC(C)C)C(=O)N[C@@H]([C@@H](C)CC)C(=O)N(C)[C@@H](Cc2ccccc2)C(=O)N[C@@H]([C@@H](C)O)C(=O)N(CCCC)CC(=O)N(C)[C@@H](CC(C)C)C(=O)N(C)[C@@H](Cc2ccccc2)C(=O)N[C@@H](COCC(=O)NC(C)(C)C)C(=O)N(C)[C@@H](C)C(=O)N[C@H](C(=O)N2CCCCC2)CC1=O [AP19] ([NBuGly][NMeL]I[NMeF]T[NBuGly][NMeL][NMeF]S(CH2CONHtBu)[NMeA]D-Piperidide; lactam N-11)
- Papp: 0.88 ×10⁻⁶ cm/s

SMILES: CCCN1CC(=O)N(C)[C@@H](CC(C)C)C(=O)N[C@@H](CC(C)C)C(=O)N(C)[C@@H](Cc2ccccc2)C(=O)N(C)[C@@H](CC(C)C)C(=O)N[C@H](C(=O)N2CCCCC2)CC(=O)N[C@H](CC(C)C)C(=O)N(C)[C@@H](Cc2ccccc2)C(=O)N[C@@H](COCCO)CC(=O)N(C)[C@@H](CC(C)C)C(=O)N[C@@H]([C@@H](C)O)C1=O [AP20] ([dL][NMeF][X7][NMeL]T[NPrGly][NMeL]L[NMeF][NMeL]D-Piperidide; lactam N-11)
- Papp: 0.37 ×10⁻⁶ cm/s
